For this assay, the target named is BACE1 enzyme (Homo sapiens (Human), UniProt P56817). In words: BACE1 efficacy assay (FRET-based, commercial BACE1 kit). In kind it is biochemical. The settings on record: test compound 10 μM, 3 nM enzyme, 250 nM substrate. The procedure: The efficacy assay was performed as a FRET-based assay using a commercially available BACE1 kit (Life Technologies, P2985). 2 μl test compound at 10 μM (final concentration) and 15 μl BACE1 enzyme from the kit (final concentration 3 nM) were preincubated for 15 minutes at room temperature before addition of 15 μl of substrate from the kit (250 nM final concentration) and incubated for additional 90 minutes at room temperature. The assay plate was subsequently read in a Pherastar (Ex540/Em590). […] The efficacy of the test compounds was evaluated at 10 μM (final concentration) and defined as the percent inhibition of the enzyme activity using the equation % inhibition=100%−normalized enzyme activity in percent.
BACE1 enzyme, sequence (P56817 46-501): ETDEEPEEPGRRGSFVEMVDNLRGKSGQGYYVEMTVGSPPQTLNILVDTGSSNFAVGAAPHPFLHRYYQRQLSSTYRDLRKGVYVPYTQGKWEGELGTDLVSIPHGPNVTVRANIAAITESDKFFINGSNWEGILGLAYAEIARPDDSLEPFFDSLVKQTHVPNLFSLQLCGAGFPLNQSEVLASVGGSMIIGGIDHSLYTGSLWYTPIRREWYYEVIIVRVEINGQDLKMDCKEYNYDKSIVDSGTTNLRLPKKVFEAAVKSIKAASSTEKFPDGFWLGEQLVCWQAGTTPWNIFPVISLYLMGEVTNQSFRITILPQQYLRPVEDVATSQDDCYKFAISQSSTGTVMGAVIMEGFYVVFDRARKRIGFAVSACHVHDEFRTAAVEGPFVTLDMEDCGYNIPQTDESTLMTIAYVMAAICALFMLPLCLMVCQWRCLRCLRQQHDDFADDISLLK
One may read the inhibition as the change of the read-out against control, counted positive when it falls. `C[C@@]1(F)CC(F)(F)[C@@](C)(c2cc(NC(=O)c3ccc(F)cn3)ccc2F)N=C1N` [Compound 2, N-(3-((2R,5R)-6-amino-3,3,5-trifluoro-2,5-dimethyl-2,3,4,5-tetrahydropyridin-2-yl)-4-fluorophenyl)-5-fluoropicolinamide]: the inhibition at 10 µM was found to be 100%.

Turning to `C[C@]1(F)CC(F)(F)[C@@](C)(c2cc(NC(=O)c3ccc(Cl)cn3)ccc2F)N=C1N` [Compound 3, N-(3-((2R,5S)-6-amino-3,3,5-trifluoro-2,5-dimethyl-2,3,4,5-tetrahydropyridin-2-yl)-4-fluorophenyl)-5-chloropicolinamide], the inhibition at 10 µM came out at 102%.

Take `C[C@]1(F)CC(F)(F)[C@@](C)(c2cc(NC(=O)c3ccc(C#N)cn3)ccc2F)N=C1N` [Compound 4, N-(3-((2R,5S)-6-amino-3,3,5-trifluoro-2,5-dimethyl-2,3,4,5-tetrahydropyridin-2-yl)-4-fluorophenyl)-5-cyanopicolinamide]: the inhibition at 10 µM came out at 99%.

Turning to `C[C@]1(F)CC(F)(F)[C@@](C)(c2cc(NC(=O)c3ccn(C(F)F)n3)ccc2F)N=C1N` [Compound 6, N-(3-((2R,5S)-6-amino-3,3,5-trifluoro-2,5-dimethyl-2,3,4,5-tetrahydropyridin-2-yl)-4-fluorophenyl)-1-(difluoromethyl)-1H-pyrazole-3-carboxamide], the inhibition at 10 µM worked out at 100%.

Take `Cc1nc(C(=O)Nc2ccc(F)c([C@@]3(C)N=C(N)[C@@](C)(F)CC3(F)F)c2)co1` [Compound 7, N-(3-((2R,5S)-6-amino-3,3,5-trifluoro-2,5-dimethyl-2,3,4,5-tetrahydropyridin-2-yl)-4-fluorophenyl)-2-methyloxazole-4-carboxamide]: the inhibition at 10 µM is 100%.

On to `C[C@]1(F)CC(F)(F)[C@@](C)(c2cc(NC(=O)c3nccs3)ccc2F)N=C1N` [Compound 8, N-(3-((2R,5S)-6-amino-3,3,5-trifluoro-2,5-dimethyl-2,3,4,5-tetrahydropyridin-2-yl)-4-fluorophenyl)thiazole-2-carboxamide], for which the inhibition at 10 µM was found to be 104%. `Cn1cc(Br)nc1C(=O)Nc1ccc(F)c([C@@]2(C)N=C(N)[C@@](C)(F)CC2(F)F)c1` [Compound 9, N-(3-((2R,5S)-6-amino-3,3,5-trifluoro-2,5-dimethyl-2,3,4,5-tetrahydropyridin-2-yl)-4-fluorophenyl)-4-bromo-1-methyl-1H-imidazole-2-carboxamide]: the inhibition at 10 µM turned out to be 103%. The same measure for `Cc1csc(C(=O)Nc2ccc(F)c([C@@]3(C)N=C(N)[C@@](C)(F)CC3(F)F)c2)n1` [Compound 10, N-(3-((2R,5S)-6-amino-3,3,5-trifluoro-2,5-dimethyl-2,3,4,5-tetrahydropyridin-2-yl)-4-fluorophenyl)-4-methylthiazole-2-carboxamide]: 102%; for `C[C@]1(F)CC(F)(F)[C@@](C)(c2cc(NC(=O)c3ccc(C(F)(F)F)cn3)ccc2F)N=C1N` [Compound 11, N-(3-((2R,5S)-6-amino-3,3,5-trifluoro-2,5-dimethyl-2,3,4,5-tetrahydropyridin-2-yl)-4-fluorophenyl)-5-(trifluoromethyl)picolinamide]: 99%.

Consider `COc1cnc(C(=O)Nc2ccc(F)c([C@@]3(C)N=C(N)[C@@](C)(F)CC3(F)F)c2)nc1` [Compound 12, N-(3-((2R,5S)-6-amino-3,3,5-trifluoro-2,5-dimethyl-2,3,4,5-tetrahydropyridin-2-yl)-4-fluorophenyl)-5-methoxpyrimidine-2-carboxamide], for which the inhibition at 10 µM turned out to be 104%. On to `C[C@]1(F)CC(F)(F)[C@@](C)(c2cc(NC(=O)c3coc(C(F)F)n3)ccc2F)N=C1N` [Compound 13, N-(3-((2R,5S)-6-amino-3,3,5-trifluoro-2,5-dimethyl-2,3,4,5-tetrahydropyridin-2-yl)-4-fluorophenyl)-2-(difluoromethyl)oxazole-4-carboxamide], for which the inhibition at 10 µM is 99%. On to `C[C@]1(F)CC(F)(F)[C@@](C)(c2cc(NC(=O)c3nc(CF)co3)ccc2F)N=C1N` [Compound 14, N-(3-((2R,5S)-6-amino-3,3,5-trifluoro-2,5-dimethyl-2,3,4,5-tetrahydropyridin-2-yl)-4-fluorophenyl)-4-(fluoromethyl)oxazole-2-carboxamide], for which the inhibition at 10 µM was 102%. Then `C[C@]1(F)CC(F)(F)[C@@](C)(c2cc(NC(=O)c3nc(CF)cs3)ccc2F)N=C1N` [Compound 15, N-(3-((2R,5S)-6-amino-3,3,5-trifluoro-2,5-dimethyl-2,3,4,5-tetrahydropyridin-2-yl)-4-fluorophenyl)-4-(fluoromethyl)thiazole-2-carboxamide], with 101%; and `C[C@]1(F)CC(F)(F)[C@@](C)(c2cc(NC(=O)c3cnc(C(F)F)cn3)ccc2F)N=C1N` [Compound 16, N-(3-((2R,5S)-6-amino-3,3,5-trifluoro-2,5-dimethyl-2,3,4,5-tetrahydropyridin-2-yl)-4-fluorophenyl)-5-(difluoromethyl)pyrazine-2-carboxamide], with 105%. As to `COc1cnc(C(=O)Nc2ccc(F)c([C@@]3(C)N=C(N)[C@@](C)(F)CC3(F)F)c2)c(C)n1` [Compound 19, N-(3-((2R,5S)-6-amino-3,3,5-trifluoro-2,5-dimethyl-2,3,4,5-tetrahydropyridin-2-yl)-4-fluorophenyl)-5-methoxy-3-methylpyrazine-2-carboxamide], the inhibition at 10 µM is 98%. For the compound `Cc1nnc(C(=O)Nc2ccc(F)c([C@@]3(C)N=C(N)[C@@](C)(F)CC3(F)F)c2)o1` [Compound 20, N-(3-((2R,5S)-6-amino-3,3,5-trifluoro-2,5-dimethyl-2,3,4,5-tetrahydropyridin-2-yl)-4-fluorophenyl)-5-methyl-1,3,4-oxadiazole-2-carboxamide], the inhibition at 10 µM stood at 88%. Take `Cc1noc(C(=O)Nc2ccc(F)c([C@@]3(C)N=C(N)[C@@](C)(F)CC3(F)F)c2)n1` [Compound 21, N-(3-((2R,5S)-6-amino-3,3,5-trifluoro-2,5-dimethyl-2,3,4,5-tetrahydropyridin-2-yl)-4-fluorophenyl)-3-methyl-1,2,4-oxadiazole-5-carboxamide]: the inhibition at 10 µM was determined as 102%. Then `Cn1cnc(C(=O)Nc2ccc(F)c([C@@]3(C)N=C(N)[C@@](C)(F)CC3(F)F)c2)n1` [Compound 22, N-(3-((2R,5S)-6-amino-3,3,5-trifluoro-2,5-dimethyl-2,3,4,5-tetrahydropyridin-2-yl)-4-fluorophenyl)-1-methyl-1H-1,2,4-triazole-3-carboxamide], with 92%. Then `C[C@@]1(F)CC(F)(F)[C@@](C)(c2cc(NC(=O)c3ccn(C(F)F)n3)ccc2F)N=C1N` [Compound 23, N-(3-((2R,5R)-6-amino-3,3,5-trifluoro-2,5-dimethyl-2,3,4,5-tetrahydropyridin-2-yl)-4-fluorophenyl)-1-(difluoromethyl)-1H-pyrazole-3-carboxamide], with 102%; and `COc1cnc(C(=O)Nc2ccc(F)c([C@@]3(C)N=C(N)[C@](C)(F)CC3(F)F)c2)cn1` [Compound 25, N-(3-((2R,5R)-6-amino-3,3,5-trifluoro-2,5-dimethyl-2,3,4,5-tetrahydropyridin-2-yl)-4-fluorophenyl)-5-methoxypyrazine-2-carboxamide], with 102%; and `COc1cnc(C(=O)Nc2ccc(F)c([C@@]3(C)N=C(N)[C@](C)(F)CC3(F)F)c2)nc1` [Compound 26, N-(3-((2R,5R)-6-amino-3,3,5-trifluoro-2,5-dimethyl-2,3,4,5-tetrahydropyridin-2-yl)-4-fluorophenyl)-5-methoxypyrimidine-2-carboxamide], with 102%. As to `Cc1csc(C(=O)Nc2ccc(F)c([C@@]3(C)N=C(N)[C@](C)(F)CC3(F)F)c2)n1` [Compound 27, N-(3-((2R,5R)-6-amino-3,3,5-trifluoro-2,5-dimethyl-2,3,4,5-tetrahydropyridin-2-yl)-4-fluorophenyl)-4-methylthiazole-2-carboxamide], the inhibition at 10 µM came to 98%. With `C[C@@]1(F)CC(F)(F)[C@@](C)(c2cc(NC(=O)c3ccc(C(F)(F)F)cn3)ccc2F)N=C1N` [Compound 28, N-(3-((2R,5R)-6-amino-3,3,5-trifluoro-2,5-dimethyl-2,3,4,5-tetrahydropyridin-2-yl)-4-fluorophenyl)-5-(trifluoromethyl)picolinamide], the inhibition at 10 µM came out at 102%.

With `C[C@@]1(F)CC(F)(F)[C@@](C)(c2cc(NC(=O)c3coc(C(F)F)n3)ccc2F)N=C1N` [Compound 29, N-(3-((2R,5R)-6-amino-3,3,5-trifluoro-2,5-dimethyl-2,3,4,5-tetrahydropyridin-2-yl)-4-fluorophenyl)-2-(difluoromethyl)oxazole-4-carboxamide], the inhibition at 10 µM was 101%. Turning to `C[C@@]1(F)CC(F)(F)[C@@](C)(c2cc(NC(=O)c3nc(CF)co3)ccc2F)N=C1N` [Compound 30, N-(3-((2R,5R)-6-amino-3,3,5-trifluoro-2,5-dimethyl-2,3,4,5-tetrahydropyridin-2-yl)-4-fluorophenyl)-4-(fluoromethyl)oxazole-2-carboxamide], the inhibition at 10 µM amounted to 103%. Take `C[C@@]1(F)CC(F)(F)[C@@](C)(c2cc(NC(=O)c3nc(CF)cs3)ccc2F)N=C1N` [Compound 31, N-(3-((2R,5R)-6-amino-3,3,5-trifluoro-2,5-dimethyl-2,3,4,5-tetrahydropyridin-2-yl)-4-fluorophenyl)-4-(fluoromethyl)thiazole-2-carboxamide]: the inhibition at 10 µM was 102%.

For `C[C@@]1(F)CC(F)(F)[C@@](C)(c2cc(NC(=O)c3ccc(C#N)cn3)ccc2F)N=C1N` [Compound 32, N-(3-((2R,5R)-6-amino-3,3,5-trifluoro-2,5-dimethyl-2,3,4,5-tetrahydropyridin-2-yl)-4-fluorophenyl)-5-cyanopicolinamide], the inhibition at 10 µM was 101%.
